Measured values from PMC6261607, “Novel high–throughput myofibroblast assays identify agonists with therapeutic potential in pulmonary fibrosis that act via EP2 and EP4 receptors” (PLoS ONE, 2018).
Structures can show the parent of a compound that is named as a salt. Where two headings read alike, the source gives them in different places.

Assays:
[1] = test system: normal human lung fibroblasts (NHLF); assay: Phenotypic high-content assay (HCA) of TGF–β1–induced fibroblast–to–myofibroblast differentiation; type: cell-based; conditions: for IC50: read-out: HCA IC50; for inhibition at 10 µM: read-out: Effect HCA at 10 µM [% inhibition]
Protocol: (§1) The plate was washed 3 times with starvation medium, e.g. fibroblast basal medium (FBM, Lonza) supplemented with 0.1% faf BSA, 100 units / ml of penicillin and 100 μg / ml of streptomycin and 250 ng / ml amphotericin B, and then starved for 24 h in 30 μl volume. NHLF were differentiated into myofibroblasts by incubation with 5 ng / ml TGF–β1 (from a stock of 20 μg / ml in 4 mM HCl, 1 mg / ml BSA) for 48 h. Compounds were prepared as 5x stocks in starvation medium and added to the starved cells to a final 1x concentration concomitant with TGF–β1 addition. The final DMSO concentration in the assay was 0.6% in all wells. 48 h after TGF–β1 addition, the medium was removed and the cells were fixed in methanol for 10 min at room temperature (RT). After fixation, cells were washed 3 times with 1 x PBS and either stored at 4°C for up to 3 days or further processed. […] Images were acquired on the Opera Phenix confocal high–content screening system (Perkin Elmer) using the 20–x water immersion lens.
(§2) DAPI stained nuclei were used to identify cells. α–SMA and FN regions were then identified and mapped to the corresponding nuclei for background correction, cell segmentation and cell feature computation to identify, classify and weigh over 400 features per cell. The computed features (S1 Table) comprise, but are not limited to, granularity, intensity, texture, area, shape and solidity of a cell in both α–SMA–and FN–expressing regions. The 0% compound effect (5 ng / ml TGF–β1) and the 100% compound effect (0 ng / ml TGF–β1) controls, were used to train and validate a support vector machine (SVM), a supervised learning model with associated learning algorithm that, once successfully validated, was applied to every cell in every well of the assayed microtiter plate. The SVM allowed autonomous weighting and classification of the characteristics and thus enabled the classifier to decide which characteristics were most relevant for the differentiation of the cell types. […] The classification of each cell was aggregated to a cell type ratio per well, represented as the computed percentage effect value per well indicative of the degree of myofibroblast differentiation. E.g. 100% equals complete myofibroblast differentiation, 0% indicates a pure fibroblast population without any signs of differentiation.

[2] = test system: normal human lung fibroblasts (NHLF); assay: Nuclear count in the HCA, standard assay; type: cell-based; conditions: read-out: Nuclear count IC50
Protocol: as §1, §2

NHLF cells = assay: RealTime–Glo MT viability assay
Protocol: The effect of compounds on cell viability was assessed by quantifying the relative metabolic activity of cells using the non–lytic luminescence–based RealTime–Glo™ MT cell viability assay (Promega) according to the manufacturer’s instructions.

[3] = Homo sapiens, Fibroblast, 48 h, NHLF, 5 ng/ml TGF–β1 for 48 h, compound added with TGF–β1, mean ± SD
[4] = Homo sapiens, Fibroblast, 10 µM compound, 5 ng/ml TGF–β1, 48 h
[5] = Homo sapiens, Fibroblast, 48 h, standard HCA, NHLF, 5 ng/ml TGF–β1, 48 h
[6] = 10 µM compound, 5 ng/ml TGF–β1, 48 h
[7] = NHLF, 5 ng/ml TGF–β1 for 48 h, compound added with TGF–β1, mean ± SD
[8] = standard HCA, NHLF, 5 ng/ml TGF–β1, 48 h

Row | SMILES | IC50 [1, 3] | inhibition at 10 µM [1, 4] | IC50 [2, 5] | Effect on viability at 10 µM [% reduction] (NHLF cells; 10 µM compound) | Effect on viability at 10 µM [% reduction] (NHLF cells; human, 10 µM) | other results
1 | Nc1c2ccccc2nc2ccccc12 [Aminacrine] | 6 µM | 97% | 24 µM | 2 % reduction | – | –
2 | COc1ccc(CCN2CCC(Nc3nc4ccccc4n3Cc3ccc(F)cc3)CC2)cc1 [Astemizole] | – | 105% | 8.3 µM | – | 49 % reduction | –
3 | Nc1ncn(C2OC(CO)C(O)C2O)c(=O)n1 (centres unmarked) [Azacytidine–5] | – | – | – | – | – | Effect HCA at 10 µM [% inhibition] [1, 6]: 97 % inhibition; IC50 [1, 7]: 3.2 µM; IC50 [2, 8]: > 25 µM; Effect on viability at 10 µM [% reduction] (NHLF cells): –4 % reduction
4 | Cc1c(-c2ccc(O)cc2)n(Cc2ccc(OCCN3CCCCCC3)cc2)c2ccc(O)cc12.Cl [Bazedoxifene HCl] | – | – | – | – | – | Effect on viability at 10 µM [% reduction] (NHLF cells): 55 % reduction
5 | CC(C)(C)CC(C)(C)c1ccc(OCCOCC[N+](C)(C)Cc2ccccc2)cc1 [Benzethonium chloride] | – | – | – | 72 % reduction | – | –
6 | CC[C@@]1(O)C(=O)OCc2c1cc1n(c2=O)Cc2cc3ccccc3nc2-1 [Camptothecine (S+)] | – | – | – | 5 % reduction | – | Effect HCA at 10 µM [% inhibition] [1, 6]: 105 % inhibition; IC50 [1, 7]: 0.041 µM; IC50 [2, 8]: > 25 µM
7 | CC(C)C[C@H](NC(=O)[C@H](CCc1ccccc1)NC(=O)CN1CCOCC1)C(=O)N[C@@H](Cc1ccccc1)C(=O)N[C@@H](CC(C)C)C(=O)[C@@]1(C)CO1 [Carfilzomib (PR–171), Carfilzomib] | 0.004 µM | 100% | – | – | 52 % reduction | –
8 | [H]/N=C(\N/C(=N/[H])NCCCCCCNC(=N)NC(=N)Nc1ccc(Cl)cc1)Nc1ccc(Cl)cc1 [Chlorhexidine] | 5.8 µM | 80% | – | – | 24 % reduction | –
9 | Oc1c(Cl)cc(Cl)c2cccnc12 [Chloroxine] | 5.9 µM | 80% | > 25 µM | – | 14 % reduction | –
10 | COCCOC(=O)C1=C(C)NC(C)=C(C(=O)OC/C=C/c2ccccc2)C1c1cccc([N+](=O)[O-])c1 (centres unmarked) [Cilnidipine] | 8.04 µM | 92% | > 25 µM | 15 % reduction | – | –
11 | C[C@@H](Oc1cc(-c2cnn(C3CCNCC3)c2)cnc1N)c1c(Cl)ccc(F)c1Cl [Crizotinib (PF–02341066), Crizotinib] | 1.5 µM | 63% | 16 µM | 66 % reduction | – | –
12 | C[C@@H]1C[C@@H]([C@H](O)CC2CC(=O)NC(=O)C2)C(=O)[C@@H](C)C1 [Cycloheximide] | – | – | – | 27 % reduction | – | inhibition at 10 µM ([1]; Homo sapiens, Fibroblast, 48 h): 91%; IC50 ([1]; Homo sapiens, Fibroblast, 48 h): 0.109 µM; IC50 ([2]; Homo sapiens, Fibroblast, 48 h): > 25 µM
13 | CC(C)(C)c1nc(-c2cccc(NS(=O)(=O)c3c(F)cccc3F)c2F)c(-c2ccnc(N)n2)s1 [Dabrafenib (GSK2118436), Dabrafenib] | 2.9 µM | 56% | > 25 µM | 9 % reduction | – | –
14 | Cc1nc(Nc2ncc(C(=O)Nc3c(C)cccc3Cl)s2)cc(N2CCN(CCO)CC2)n1 [Dasatinib (BMS–354825), Dasatinib] | 1.02 µM | 89% | > 25 µM | – | –10 % reduction | –
15 | COc1cccc2c1C(=O)c1c(O)c3c(c(O)c1C2=O)C[C@@](O)(C(C)=O)C[C@@H]3O[C@H]1C[C@H](N)[C@H](O)[C@H](C)O1 [Daunorubicin hydrochloride] | – | – | – | – | 14 % reduction | inhibition at 10 µM ([1]; Homo sapiens, Fibroblast, 48 h): 73%; IC50 ([1]; Homo sapiens, Fibroblast, 48 h): 0.27 µM
16 | Cc1cc(N)c2ccccc2[n+]1CCCCCCCCCC[n+]1c(C)cc(N)c2ccccc21 [Dequalinium dichloride] | 5.8 µM | 67% | > 25 µM | – | 39 % reduction | –

Row | SMILES | IC50 [1, 3] | inhibition at 10 µM [1, 4] | IC50 [2, 5] | Effect on viability at 10 µM [% reduction] (NHLF cells; 10 µM compound) | Effect on viability at 10 µM [% reduction] (NHLF cells; human, 10 µM) | other results
17 | C[C@]12CC[C@H](O)C[C@H]1CC[C@@H]1[C@@H]2CC[C@]2(C)[C@@H](C3=CC(=O)OC3)CC[C@]12O [Digitoxigenin] | – | – | – | 22 % reduction | – | inhibition at 10 µM ([1]; Homo sapiens, Fibroblast, 48 h): 93%; IC50 ([1]; Homo sapiens, Fibroblast, 48 h): 0.039 µM; IC50 ([2]; Homo sapiens, Fibroblast, 48 h): > 25 µM
18 | C[C@H]1O[C@@H](O[C@H]2[C@@H](O)C[C@H](O[C@H]3[C@@H](O)C[C@H](O[C@H]4CC[C@@]5(C)[C@H](CC[C@@H]6[C@@H]5C[C@@H](O)[C@]5(C)[C@@H](C7=CC(=O)OC7)CC[C@]65O)C4)O[C@@H]3C)O[C@@H]2C)C[C@H](O)[C@@H]1O [Digoxin] | – | – | – | – | 19 % reduction | inhibition at 10 µM ([1]; Homo sapiens, Fibroblast, 48 h): 87%; IC50 ([1]; Homo sapiens, Fibroblast, 48 h): 0.01 µM; IC50 ([2]; Homo sapiens, Fibroblast, 48 h): > 25 µM
19 | COc1cccc2c1C(=O)c1c(O)c3c(c(O)c1C2=O)C[C@@](O)(C(=O)CO)C[C@@H]3O[C@H]1C[C@H](N)[C@H](O)[C@H](C)O1 [Doxorubicin hydrochloride] | 0.45 µM | 64% | > 25 µM | – | 20 % reduction | –
20 | CC[C@H]1CN2CCc3cc(OC)c(OC)cc3[C@@H]2C[C@@H]1C[C@H]1NCCc2cc(OC)c(OC)cc21 [Emetine] | 0.071 µM | 100% | > 25 µM | 25 % reduction | – | –
21 | COc1cccc2c1C(=O)c1c(O)c3c(c(O)c1C2=O)C[C@@](O)(C(=O)CO)C[C@@H]3O[C@H]1C[C@H](N)[C@@H](O)[C@H](C)O1 [Epirubicin hydrochloride] | 1.07 µM | 93% | – | – | 28 % reduction | –
22 | CCCCC(=O)O[C@H]1CC[C@H]2[C@@H]3CCc4cc(O)ccc4[C@H]3CC[C@]12C [Estradiol Valerate] | 9.7 µM | 66% | 11 µM | – | 65 % reduction | –
23 | CCOc1ccc2nc3cc(N)ccc3c(N)c2c1 [Ethacridine lactate monohydrate] | 7.5 µM | 73% | > 25 µM | –9 % reduction | – | –
24 | Cc1cc(C#N)cc(C)c1Oc1nc(Nc2ccc(C#N)cc2)nc(N)c1Br [Etravirine (TMC125), Etravirine] | 3.9 µM | 100% | > 25 µM | 29 % reduction | – | –
25 | COC(=O)Nc1nc2ccc(Sc3ccccc3)cc2[nH]1 [Fenbendazole] | 6.7 µM | 76% | 5.8 µM | – | 51 % reduction | –
26 | Cl.Cl.Fc1ccc(C(OCCN2CCN(CCCc3ccccc3)CC2)c2ccc(F)cc2)cc1 [GBR 12909 dihydrochloride] | – | – | – | – | – | Effect HCA at 10 µM [% inhibition] [1, 6]: 56 % inhibition; IC50 [1, 7]: 9.9 µM; Effect on viability at 10 µM [% reduction] (NHLF cells): 13 % reduction
27 | CCCCN(CCCC)CCC(O)c1cc2c(Cl)cc(Cl)cc2c2cc(C(F)(F)F)ccc12 (centres unmarked) [Halofantrine hydrochloride] | 6.02 µM | 101% | 5.2 µM | 29 % reduction | – | –
28 | Oc1c(Cl)cc(Cl)c(Cl)c1Cc1c(O)c(Cl)cc(Cl)c1Cl [Hexachlorophene] | – | – | – | – | – | inhibition at 10 µM ([1]; Homo sapiens, Fibroblast, 48 h): 93%; IC50 ([1]; Homo sapiens, Fibroblast, 48 h): 6.7 µM; IC50 ([2]; Homo sapiens, Fibroblast, 48 h): > 25 µM
29 | CN[C@@H]1C[C@@H](c2ccc(Cl)c(Cl)c2)c2ccccc21 [Indatraline hydrochloride] | – | 67% | – | 20 % reduction | – | IC50 ([1]; Homo sapiens, Fibroblast, NHLF, 5 ng/ml TGF–β1 for 48 h, compound added with TGF–β1, mean ± SD): 8.06 µM
30 | O=C1c2c(O)ccc(O)c2C(=O)c2c(NCCNCCO)ccc(NCCNCCO)c21 [Mitoxantrone dihydrochloride] | 0.62 µM | 101% | – | – | 31 % reduction | –
31 | C=CC(=O)N1CCC[C@@H](n2nc(-c3ccc(Oc4ccccc4)cc3)c3c(N)ncnc32)C1 [PCI–32765 (Ibrutinib), Ibrutinib] | – | – | – | – | 22 % reduction | –
32 | O=C(CCCCCCC(=O)Nc1ccccc1)NO [Vorinostat] | – | – | – | 24 % reduction | – | –
